Assay results published in patent US9855239B2, “Methods for the treatment and prevention of age-related retinal dysfunction” (University of Washington, priority 2008, dated 2018).
Entries after “also recorded” stand apart in the source; their conditions may differ.

Experiments:
[1] = tested on: Lrat−/− and Rpe65−/− knockout mice; conditions: cited from earlier work
C57BL/6 female mice [2] = experiment: Single flash ERG analyses after long-term treatment; format: in vivo, mouse; conditions: 14 months of age, monthly gavage ~80 mg/kg (9-cis-R-Ac: N2 and N3), vs control C2; 80 mg/kg
Text: To evaluate the effects of rod- and cone-mediated light responses after long-term 9-cis-R-Ac treatments, mice were examined by non-invasive ERG methods. The first set of analyses was done at 4 and 10 months of age. Under scotopic conditions, the amplitudes of a-waves decreased with age, especially at high flash intensities (C1 versus C0 group, FIG. 4A, left top panel), whereas the changes in b-waves were less evident (FIG. 4A, right top panel).
The second set of analyses was done at 14 months of age.
(§1) Six groups of mice were studied (FIG. 1B).
(§2) Two weeks after the last gavage with either, 9-cis-R-Ac, all-trans-R-Ac or vehicle, groups of 48 hr dark-adapted mice were analyzed for recovery of dark adaptation after light exposure, purified rhodopsin/opsin and retinoids in the eye and retinal morphology (FIG. 1C; Methods). Mice were exposed to light of intensity 500 cd·m^−2 that bleached ˜90% of rhodopsin, anesthetized and monitored by ERG for one hr to evaluate recovery of dark adaptation. Rhodopsin was purified and rhodopsin/opsin ratios was determined. Retinoid analyses were performed on dissected eyes removed at 0, 10, 30, and 60 min after exposure to the same amount of light. Mice used to evaluate retinal morphology were not exposed to photobleaching prior to analysis.
(§3) ERGs of anesthetized mice were recorded as previously reported.

C57BL/6 female mice [3] = experiment: Recovery of ERG response (dark adaptation) after bleach, long-term treatment; format: in vivo, mouse; conditions: 14 months of age, treated (9-cis-R-Ac: N2 and N3) vs C2; 500 cd·m^−2 for 3 min, 60 min dark adaptation
Procedure: Recovery of the ERG response (dark adaptation) following bleach was measured by monitoring the amplitude of a-waves after retinal exposure to intense constant illumination (500 cd·m^−2, ˜90% bleached rhodopsin) for 3 min. […] Retinoid kinetics in the eyes of each group were quantitatively evaluated during 60 min of dark adaptation after 3 min of bleaching at four subsequent time points of dark adaptation (0, 10, 30, and 60 min). […] Neither 9-cis-retinal nor 9-cis-retinyl esters were found in eyes from untreated groups (data not shown).
as §1, §2, §3

retina = experiment: Retinal morphology (light and electron microscopy); format: in vivo, mouse; conditions: 10 and 14 months of age
Procedure: The thickness of each major layer in the retina was also similar between control and treated groups.
For light microscopy, mouse eyecups were fixed with 2.5% glutaraldehyde and 1.6% paraformaldehyde in 0.08 M 1,4-piperazinediethanesulfonate buffer (PIPES) (pH 7.4) containing 2% sucrose for ˜1 hr at room temperature followed by 23 hr at 4° C. Eyecups then were washed with 0.13 M sodium phosphate buffer (pH 7.3) and dehydrated through a CH3OH series and embedded in JB4 glycol metacrylate. Sections (6 μm) were stained by immersion in 5% Richardson's stain for 1.5-2 min at room temperature and destained in 0.13 M sodium phosphate (pH 7.3) until the retinal layers were visible by light microscopy (about 8-15 min). For transmission electron microscopy, mouse eyecups were analyzed as described previously (Maeda, A., et al. J Blot Chem 280, 18822-18832 (2005); Maeda, T., Lem, J., Palczewski, K. & Haeseleer, F. Investigative ophthalmology & visual science 46, 4320-4327 (2005)).

## CC1=C(/C=C/C(C)=C\C=C\C(C)=C\C=O)C(C)(C)CCC1 [9-cis-retinal]
[1]; mouse, in vivo, po
  retinal morphology and rod function (single cell recordings, ERG): preserved retinal morphology and recovery of normal rod function

## CC1=C(/C=C/C(C)=C/C=C/C(C)=C/C=O)C(C)(C)CCC1 [11-cis-retinal]
[1]; intraperitoneal injection, Rpe65−/− mice
  vision: improves vision

## CC(=O)OC/C=C(C)/C=C/C=C(C)/C=C/C1=C(C)CCCC1(C)C [all-trans-R-Ac, reference compound]
C57BL/6 female mice [2]
  a- and b-wave amplitudes, scotopic and photopic single flash ERG: no significant difference; also recorded: no effect
C57BL/6 female mice [3]
  recovery of ERG a-wave response (dark adaptation) after bleach: no significant difference
retina
  retinal abnormalities by light microscopy: no major abnormalities
